# Source: PMC6748410, “A phase 2 study of an oral mTORC1/mTORC2 kinase inhibitor (CC-223) for non-pancreatic neuroendocrine tumors with or without carcinoid symptoms” (PLoS ONE, 2019)
# Experiments:
# Format in all cases: in vivo, human
# pAKT (mTORC2) = assay: Stimulated blood biomarker assay in monocytes (CD14+) for pAKT (mTORC2 inhibition); conditions: for pAKT median inhibition from baseline: 30 mg; for Blood pAKT median inhibition: 45 mg
# Description: (§1) Central laboratories conducted serial stimulated blood biomarker assays in monocytes (CD14+) for p4E-BP1 and pPKB (also known as pAKT) for assessment of mTORC1 and mTORC2 inhibition, respectively. Monthly changes from baseline for chromogranin A (CgA), and for other serum hormones if elevated, were assayed locally.
# p4E-BP1 (mTORC1) = assay: Stimulated blood biomarker assay in monocytes (CD14+) for p4E-BP1 (mTORC1 inhibition)
# Description: as §1
# [1] = system: serum hormones (CgA, gastrin, glucagon, serotonin); assay: Serum hormone changes from baseline; conditions: among 35 patients with elevated baseline levels in at least one hormone
# Description: as §1
# This phase 1/2 study was not powered for inferential statistics and mostly descriptive statistics were used. All patients dosed with CC-223 were included in the safety analysis. The efficacy analysis included all patients completing at least one cycle of drug who had both baseline and one post-baseline tumor efficacy assessment, unless otherwise specified. Categorical baseline variables including tumor type-specific characteristics were summarized using frequency counts and percentage. Continuous demographic and baseline characteristic variables were summarized by descriptive statistics. A Wilcoxon signed rank test was used to analyse change from baseline in serum hormone levels at selected scheduled visits.
# [2] = across both dose level cohorts (45 mg or 30 mg), 1.5 hours after multiple dosing on day 15
compound,measurement,setting,value
CO[C@H]1CC[C@H](N2C(=O)CNc3ncc(-c4ccc(C(C)(C)O)nc4)nc32)CC1 [CC-223],pAKT median inhibition from baseline,pAKT (mTORC2); after the first dose,59%
same,pAKT median inhibition from baseline,pAKT (mTORC2); day 15 after multiple doses,79%
same,Blood pAKT median inhibition,pAKT (mTORC2); 1.5 hours after a single dose (day 1),83%
same,Blood pAKT median inhibition,pAKT (mTORC2); after multiple doses (day 15),76%
same,pAKT median biomarker inhibition relative to baseline,pAKT (mTORC2); [2],> 70%
same,p4E-BP1 median inhibition,"p4E-BP1 (mTORC1); 30 mg, after multiple doses",26%
same,p4E-BP1 median inhibition,"p4E-BP1 (mTORC1); 30 mg, following a single dose",9%
same,p4E-BP1 median inhibition,"p4E-BP1 (mTORC1); 45 mg, 1.5 hours after a single dose",37%
same,p4E-BP1 median inhibition,"p4E-BP1 (mTORC1); 45 mg, after multiple doses",47%
same,p4E-BP1 median biomarker inhibition relative to baseline,p4E-BP1 (mTORC1); [2],> 26%
same,Patients with ≥50% decline from baseline in CgA,[1],7 patients
same,Patients with ≥50% decline from baseline in gastrin,[1],6 patients
same,Patients with ≥50% decline from baseline in glucagon,[1],3 patients
same,Patients with ≥50% decline from baseline in serotonin,[1],2 patients
